Tests used:
CSK = target: T1, CSK (Homo sapiens, UniProt P41240); assay: Proqinase Kinase profiling; format: biochemical; settings: read-out: % inhibition at 100nM
T1 construct: purchased DiscoverX

MAP3K7 = target: T2, MAP3K7 (Homo sapiens, UniProt O43318); assay: Proqinase Kinase profiling; format: biochemical; settings: read-out: % inhibition at 100nM
T2 construct: purchased DiscoverX

EIF2AK3 = target: T3, EIF2AK3 (Homo sapiens, UniProt Q9NZJ5); assay: Proqinase Kinase profiling; format: biochemical; settings: read-out: % inhibition at 100nM
T3 construct: purchased DiscoverX

CDK1_cyclinE1 = target: T4, CDK1_cyclinE1 (Homo sapiens, UniProt P06493); assay: Proqinase Kinase profiling; format: biochemical; settings: read-out: % inhibition at 100nM
T4 construct: purchased DiscoverX

TBK1 = target: T5, TBK1 (Homo sapiens, UniProt Q9UHD2); assay: Proqinase Kinase profiling; format: biochemical; settings: read-out: % inhibition at 100nM
T5 construct: purchased DiscoverX

KIT_T670I = target: T6, KIT_T670I (Homo sapiens, UniProt P10721, T670I); assay: Proqinase Kinase profiling; format: biochemical; settings: read-out: % inhibition at 100nM
T6 construct: purchased DiscoverX

IKBKB = target: T7, IKBKB (Homo sapiens, UniProt O14920); assay: Proqinase Kinase profiling; format: biochemical; settings: read-out: % inhibition at 100nM
T7 construct: purchased DiscoverX

MAP3K1 = target: T8, MAP3K1 (Homo sapiens, UniProt Q13233); assay: Proqinase Kinase profiling; format: biochemical; settings: read-out: % inhibition at 100nM
T8 construct: purchased DiscoverX

CDK3_cyclinE = target: T9, CDK3_cyclinE (Homo sapiens, UniProt Q00526); assay: Proqinase Kinase profiling; format: biochemical; settings: read-out: % inhibition at 100nM
T9 construct: purchased DiscoverX

PRKD1 = target: T10, PRKD1 (Homo sapiens, UniProt Q15139); assay: Proqinase Kinase profiling; format: biochemical; settings: read-out: % inhibition at 100nM
T10 construct: purchased DiscoverX

LCK = target: T11, LCK (Homo sapiens, UniProt P06239); assay: Proqinase Kinase profiling; format: biochemical; settings: read-out: % inhibition at 100nM
T11 construct: purchased DiscoverX

VRK1 = target: T12, VRK1 (Homo sapiens, UniProt Q99986); assay: Proqinase Kinase profiling; format: biochemical; settings: read-out: % inhibition at 100nM
T12 construct: purchased DiscoverX

FRK = target: T13, FRK (Homo sapiens, UniProt P42685); assay: Proqinase Kinase profiling; format: biochemical; settings: read-out: % inhibition at 100nM
T13 construct: purchased DiscoverX

NTRK2 = target: T14, NTRK2 (Homo sapiens, UniProt Q16620); assay: Proqinase Kinase profiling; format: biochemical; settings: read-out: % inhibition at 100nM
T14 construct: purchased DiscoverX
T14 sequence (Q16620 32-822): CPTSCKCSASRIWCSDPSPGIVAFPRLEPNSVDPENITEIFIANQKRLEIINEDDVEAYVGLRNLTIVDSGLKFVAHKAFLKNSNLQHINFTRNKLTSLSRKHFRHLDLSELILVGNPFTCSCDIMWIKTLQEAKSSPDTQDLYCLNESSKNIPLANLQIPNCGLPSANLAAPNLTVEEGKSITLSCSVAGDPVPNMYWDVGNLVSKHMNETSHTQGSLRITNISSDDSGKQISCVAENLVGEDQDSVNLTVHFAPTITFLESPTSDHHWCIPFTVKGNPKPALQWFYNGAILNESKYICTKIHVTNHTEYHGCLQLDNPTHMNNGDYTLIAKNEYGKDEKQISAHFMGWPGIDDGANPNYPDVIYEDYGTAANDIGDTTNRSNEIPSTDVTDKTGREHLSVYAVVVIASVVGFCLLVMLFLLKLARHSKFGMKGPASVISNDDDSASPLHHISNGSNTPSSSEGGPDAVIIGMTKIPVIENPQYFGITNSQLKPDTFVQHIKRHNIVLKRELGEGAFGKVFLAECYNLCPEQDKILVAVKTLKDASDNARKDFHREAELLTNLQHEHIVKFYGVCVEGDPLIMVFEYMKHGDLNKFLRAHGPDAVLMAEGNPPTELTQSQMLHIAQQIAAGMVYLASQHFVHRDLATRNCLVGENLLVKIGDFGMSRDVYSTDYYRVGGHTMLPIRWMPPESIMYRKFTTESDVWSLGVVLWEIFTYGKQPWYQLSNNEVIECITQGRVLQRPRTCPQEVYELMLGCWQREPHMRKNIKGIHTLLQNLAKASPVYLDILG

ACVRL1 = target: T15, ACVRL1 (Homo sapiens, UniProt P37023); assay: Proqinase Kinase profiling; format: biochemical; settings: read-out: % inhibition at 100nM
T15 construct: purchased DiscoverX

EPHA2 = target: T16, EPHA2 (Homo sapiens, UniProt P29317); assay: Proqinase Kinase profiling; format: biochemical; settings: read-out: % inhibition at 100nM
T16 construct: purchased DiscoverX

SIK2 = target: T17, SIK2 (Homo sapiens, UniProt Q9H0K1); assay: Proqinase Kinase profiling; format: biochemical; settings: read-out: % inhibition at 100nM
T17 construct: purchased DiscoverX

IGF1R = target: T18, IGF1R (Homo sapiens, UniProt P08069); assay: Proqinase Kinase profiling; format: biochemical; settings: read-out: % inhibition at 100nM
T18 construct: purchased DiscoverX
T18 sequence (P08069 31-1367): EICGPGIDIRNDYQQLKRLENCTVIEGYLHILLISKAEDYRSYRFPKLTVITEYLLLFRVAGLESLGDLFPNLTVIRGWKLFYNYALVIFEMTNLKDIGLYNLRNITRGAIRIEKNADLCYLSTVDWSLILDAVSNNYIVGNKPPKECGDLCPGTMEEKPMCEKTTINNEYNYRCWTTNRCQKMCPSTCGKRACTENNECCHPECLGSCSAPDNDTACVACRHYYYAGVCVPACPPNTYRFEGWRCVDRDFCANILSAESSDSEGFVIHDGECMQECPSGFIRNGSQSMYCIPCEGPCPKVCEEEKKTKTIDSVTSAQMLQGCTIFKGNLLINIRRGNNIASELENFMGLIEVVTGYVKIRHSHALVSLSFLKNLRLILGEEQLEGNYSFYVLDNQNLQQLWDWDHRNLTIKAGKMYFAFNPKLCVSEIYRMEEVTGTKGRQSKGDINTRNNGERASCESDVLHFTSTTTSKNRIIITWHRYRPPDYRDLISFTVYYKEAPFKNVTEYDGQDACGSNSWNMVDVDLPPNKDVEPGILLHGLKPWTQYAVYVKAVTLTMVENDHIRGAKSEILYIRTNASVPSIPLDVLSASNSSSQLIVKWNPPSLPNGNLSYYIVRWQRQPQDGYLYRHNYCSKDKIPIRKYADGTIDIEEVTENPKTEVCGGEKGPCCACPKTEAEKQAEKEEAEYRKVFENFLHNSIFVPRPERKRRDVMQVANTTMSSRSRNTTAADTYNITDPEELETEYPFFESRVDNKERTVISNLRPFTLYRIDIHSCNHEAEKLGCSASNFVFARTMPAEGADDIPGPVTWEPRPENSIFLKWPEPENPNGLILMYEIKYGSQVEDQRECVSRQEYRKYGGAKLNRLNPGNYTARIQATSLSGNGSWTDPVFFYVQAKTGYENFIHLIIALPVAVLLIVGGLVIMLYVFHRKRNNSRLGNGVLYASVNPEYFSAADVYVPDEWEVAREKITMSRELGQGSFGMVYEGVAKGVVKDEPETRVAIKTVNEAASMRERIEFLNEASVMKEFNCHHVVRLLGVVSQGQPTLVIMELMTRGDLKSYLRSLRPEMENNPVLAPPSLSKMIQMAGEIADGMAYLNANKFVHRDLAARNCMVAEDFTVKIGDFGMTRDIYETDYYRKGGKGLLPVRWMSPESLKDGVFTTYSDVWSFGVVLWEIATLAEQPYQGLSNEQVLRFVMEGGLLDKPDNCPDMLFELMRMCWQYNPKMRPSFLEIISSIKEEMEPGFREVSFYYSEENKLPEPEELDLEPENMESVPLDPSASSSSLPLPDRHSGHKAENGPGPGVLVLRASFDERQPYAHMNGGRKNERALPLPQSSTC

EGFR_L747-E749del_A750P = target: T19, EGFR_L747-E749del_A750P (Homo sapiens, UniProt P00533, A750P/DEL747-749); assay: Proqinase Kinase profiling; format: biochemical; settings: read-out: % inhibition at 100nM
T19 construct: purchased DiscoverX
T19 sequence (P00533 with tags, fused parts or gaps DEL747-749/A750P limits assumed): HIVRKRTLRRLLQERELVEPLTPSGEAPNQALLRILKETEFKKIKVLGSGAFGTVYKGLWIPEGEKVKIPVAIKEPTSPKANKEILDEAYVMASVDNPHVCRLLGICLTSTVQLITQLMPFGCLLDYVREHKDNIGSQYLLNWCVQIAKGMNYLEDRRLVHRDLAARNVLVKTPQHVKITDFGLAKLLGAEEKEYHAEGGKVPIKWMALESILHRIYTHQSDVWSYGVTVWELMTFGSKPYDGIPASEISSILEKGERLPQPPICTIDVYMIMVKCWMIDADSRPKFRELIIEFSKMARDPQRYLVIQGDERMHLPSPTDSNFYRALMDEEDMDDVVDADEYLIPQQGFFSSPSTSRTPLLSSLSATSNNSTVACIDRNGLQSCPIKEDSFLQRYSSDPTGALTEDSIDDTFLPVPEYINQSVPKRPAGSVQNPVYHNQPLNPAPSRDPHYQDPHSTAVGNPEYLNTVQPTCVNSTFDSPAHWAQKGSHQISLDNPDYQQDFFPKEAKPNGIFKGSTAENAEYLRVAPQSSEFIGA

RET = target: T20, RET (Homo sapiens, UniProt P07949); assay: Proqinase Kinase profiling; format: biochemical; settings: read-out: % inhibition at 100nM
T20 construct: purchased DiscoverX
T20 sequence (P07949 29-1114): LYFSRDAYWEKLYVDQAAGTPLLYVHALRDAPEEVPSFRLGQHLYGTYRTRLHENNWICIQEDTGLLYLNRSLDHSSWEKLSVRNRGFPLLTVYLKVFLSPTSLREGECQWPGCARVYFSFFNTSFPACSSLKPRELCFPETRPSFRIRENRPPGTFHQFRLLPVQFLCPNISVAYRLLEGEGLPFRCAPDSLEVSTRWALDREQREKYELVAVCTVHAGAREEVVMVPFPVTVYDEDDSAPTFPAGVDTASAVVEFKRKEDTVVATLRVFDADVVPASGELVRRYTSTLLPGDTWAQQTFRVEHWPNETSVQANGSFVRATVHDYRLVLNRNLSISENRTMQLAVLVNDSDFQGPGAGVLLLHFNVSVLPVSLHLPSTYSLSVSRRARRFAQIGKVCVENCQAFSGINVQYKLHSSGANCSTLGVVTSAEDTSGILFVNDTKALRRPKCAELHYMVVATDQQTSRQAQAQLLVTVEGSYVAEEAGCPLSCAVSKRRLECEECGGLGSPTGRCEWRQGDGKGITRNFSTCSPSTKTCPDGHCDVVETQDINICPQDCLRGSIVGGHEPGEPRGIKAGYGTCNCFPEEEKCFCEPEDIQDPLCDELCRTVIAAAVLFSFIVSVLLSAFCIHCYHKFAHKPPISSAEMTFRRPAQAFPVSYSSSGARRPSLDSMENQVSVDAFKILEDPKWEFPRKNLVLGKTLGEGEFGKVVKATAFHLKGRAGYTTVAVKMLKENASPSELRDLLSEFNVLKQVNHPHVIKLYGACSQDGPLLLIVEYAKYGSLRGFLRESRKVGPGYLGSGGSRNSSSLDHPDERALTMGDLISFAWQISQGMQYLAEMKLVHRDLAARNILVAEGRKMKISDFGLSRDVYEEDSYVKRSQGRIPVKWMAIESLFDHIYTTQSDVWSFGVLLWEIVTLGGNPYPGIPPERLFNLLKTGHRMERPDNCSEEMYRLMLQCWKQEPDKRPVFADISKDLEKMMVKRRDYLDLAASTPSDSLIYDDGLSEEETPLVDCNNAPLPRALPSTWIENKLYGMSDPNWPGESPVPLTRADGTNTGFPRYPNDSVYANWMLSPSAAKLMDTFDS

NTRK3 = target: T21, NTRK3 (Homo sapiens, UniProt Q16288); assay: Proqinase Kinase profiling; format: biochemical; settings: read-out: % inhibition at 100nM
T21 construct: purchased DiscoverX

CDK5_p35 = target: T22, CDK5_p35 (Homo sapiens, UniProt Q00535); assay: Proqinase Kinase profiling; format: biochemical; settings: read-out: % inhibition at 100nM
T22 construct: purchased DiscoverX

WNK2 = target: T23, WNK2 (Homo sapiens, UniProt Q9Y3S1); assay: Proqinase Kinase profiling; format: biochemical; settings: read-out: % inhibition at 100nM
T23 construct: purchased DiscoverX

EPHA5 = target: T24, EPHA5 (Homo sapiens, UniProt P54756); assay: Proqinase Kinase profiling; format: biochemical; settings: read-out: % inhibition at 100nM
T24 construct: purchased DiscoverX

[1] = system: BMP-6-induced BRE-LUC reporter activity; assay: BMP BRE-LUC reporter assay in KS483 cells; format: cell-based, mouse; settings: BMP-6 50 ng/mL 16 hours
Description: Compounds were added for 16 hours at 0.5μM before luciferase activity was measured.
For luciferase reporter assays, cells were seeded in 24-well plates and transfected with DharmaFECT Duo (Fisher Scientific, Landsmeer, The Netherlands), following the recommendations of the manufacturer. 48 hours after transfection the cells were harvested and lysed. […] Each transfection mixture was equalized with empty vector when necessary and every experiment was performed in triplicate.

IRAK4 = target: T25, IRAK4 (Homo sapiens, UniProt Q9NWZ3); assay: Proqinase Kinase profiling; format: biochemical; settings: read-out: % inhibition at 100nM
T25 construct: purchased DiscoverX

ERBB2 = target: T26, ERBB2 (Homo sapiens, UniProt P04626); assay: Proqinase Kinase profiling; format: biochemical; settings: read-out: % inhibition at 100nM
T26 construct: purchased DiscoverX
T26 sequence (P04626 23-1255): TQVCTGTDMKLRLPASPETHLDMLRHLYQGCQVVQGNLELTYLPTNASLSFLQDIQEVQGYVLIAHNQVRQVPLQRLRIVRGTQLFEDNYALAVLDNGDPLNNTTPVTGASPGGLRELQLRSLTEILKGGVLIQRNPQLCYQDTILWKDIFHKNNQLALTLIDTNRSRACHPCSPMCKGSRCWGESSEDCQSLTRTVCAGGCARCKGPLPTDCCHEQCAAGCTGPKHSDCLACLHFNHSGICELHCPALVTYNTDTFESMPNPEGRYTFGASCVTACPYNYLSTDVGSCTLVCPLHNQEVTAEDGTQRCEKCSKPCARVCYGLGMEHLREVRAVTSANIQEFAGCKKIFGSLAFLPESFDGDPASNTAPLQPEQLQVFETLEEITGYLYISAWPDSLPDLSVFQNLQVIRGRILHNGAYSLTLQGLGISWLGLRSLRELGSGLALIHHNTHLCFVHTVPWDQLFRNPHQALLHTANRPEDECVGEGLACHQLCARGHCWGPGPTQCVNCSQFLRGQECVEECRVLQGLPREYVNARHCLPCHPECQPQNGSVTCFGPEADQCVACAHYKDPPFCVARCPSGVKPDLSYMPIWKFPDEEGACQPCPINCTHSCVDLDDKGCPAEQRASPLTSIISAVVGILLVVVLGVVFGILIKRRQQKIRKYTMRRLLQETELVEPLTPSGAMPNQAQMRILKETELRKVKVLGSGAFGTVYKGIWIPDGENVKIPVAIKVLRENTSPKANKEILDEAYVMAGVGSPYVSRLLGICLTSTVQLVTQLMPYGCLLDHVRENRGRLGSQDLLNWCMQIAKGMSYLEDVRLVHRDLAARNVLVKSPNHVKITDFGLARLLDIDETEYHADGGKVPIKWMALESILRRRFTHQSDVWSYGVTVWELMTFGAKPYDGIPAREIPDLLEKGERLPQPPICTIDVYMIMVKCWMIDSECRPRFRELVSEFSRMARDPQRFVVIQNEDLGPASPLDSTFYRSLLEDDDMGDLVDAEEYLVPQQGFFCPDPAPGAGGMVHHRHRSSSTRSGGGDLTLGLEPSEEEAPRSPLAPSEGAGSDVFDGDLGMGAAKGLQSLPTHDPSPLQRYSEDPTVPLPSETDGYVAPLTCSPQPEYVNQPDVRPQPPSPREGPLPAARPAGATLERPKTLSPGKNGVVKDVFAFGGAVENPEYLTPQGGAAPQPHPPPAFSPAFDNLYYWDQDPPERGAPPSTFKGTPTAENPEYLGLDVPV

DAPK3 = target: T27, DAPK3 (Homo sapiens, UniProt O43293); assay: Proqinase Kinase profiling; format: biochemical; settings: read-out: % inhibition at 100nM
T27 construct: purchased DiscoverX

SRC = target: T28, SRC (Homo sapiens, UniProt P12931); assay: Proqinase Kinase profiling; format: biochemical; settings: read-out: % inhibition at 100nM
T28 construct: purchased DiscoverX

ALK_R1275Q = target: T29, ALK_R1275Q (Homo sapiens, UniProt Q9UM73, R1275Q); assay: Proqinase Kinase profiling; format: biochemical; settings: read-out: % inhibition at 100nM
T29 construct: purchased DiscoverX

MST1R = target: T30, MST1R (Homo sapiens, UniProt Q04912); assay: Proqinase Kinase profiling; format: biochemical; settings: read-out: % inhibition at 100nM
T30 construct: purchased DiscoverX

ACVR1B = target: T31, ACVR1B (Homo sapiens, UniProt P36896); assay: Proqinase Kinase profiling; format: biochemical; settings: read-out: % inhibition at 100nM
T31 construct: purchased DiscoverX

TSSK1B = target: T32, TSSK1B (Homo sapiens, UniProt Q9BXA7); assay: Proqinase Kinase profiling; format: biochemical; settings: read-out: % inhibition at 100nM
T32 construct: purchased DiscoverX

PHKG1 = target: T33, PHKG1 (Homo sapiens, UniProt Q16816); assay: Proqinase Kinase profiling; format: biochemical; settings: read-out: % inhibition at 100nM
T33 construct: purchased DiscoverX

PRKCQ = target: T34, PRKCQ (Homo sapiens, UniProt Q04759); assay: Proqinase Kinase profiling; format: biochemical; settings: read-out: % inhibition at 100nM
T34 construct: purchased DiscoverX

MAPK8 = target: T35, MAPK8 (Homo sapiens, UniProt P45983); assay: Proqinase Kinase profiling; format: biochemical; settings: read-out: % inhibition at 100nM
T35 construct: purchased DiscoverX

EGFR_G719S = target: T36, EGFR_G719S (Homo sapiens, UniProt P00533, G719S); assay: Proqinase Kinase profiling; format: biochemical; settings: read-out: % inhibition at 100nM
T36 construct: purchased DiscoverX

KIT_D816V = target: T37, KIT_D816V (Homo sapiens, UniProt P10721, D816V); assay: Proqinase Kinase profiling; format: biochemical; settings: read-out: % inhibition at 100nM
T37 construct: purchased DiscoverX

IKBKE = target: T38, IKBKE (Homo sapiens, UniProt Q14164); assay: Proqinase Kinase profiling; format: biochemical; settings: read-out: % inhibition at 100nM
T38 construct: purchased DiscoverX

DAPK1 = target: T39, DAPK1 (Homo sapiens, UniProt P53355); assay: Proqinase Kinase profiling; format: biochemical; settings: read-out: % inhibition at 100nM
T39 construct: purchased DiscoverX

ABL1 = target: T40, ABL1 (Homo sapiens, UniProt P00519); assay: Proqinase Kinase profiling; format: biochemical; settings: read-out: % inhibition at 100nM
T40 construct: purchased DiscoverX

Clc1cc2cc(c1)-c1cnn3ccc(nc13)NCCOCCO2 [OD36]
inhibition at 0.1 µM (CSK): -4%
inhibition at 0.1 µM (MAP3K7): 3%
inhibition at 0.1 µM (EIF2AK3): 1%
inhibition at 0.1 µM (CDK1_cyclinE1): 8%
inhibition at 0.1 µM (TBK1): 11%
inhibition at 0.1 µM (KIT_T670I): 9%
inhibition at 0.1 µM (IKBKB): 1%
inhibition at 0.1 µM (MAP3K1): 8%
inhibition at 0.1 µM (CDK3_cyclinE): 11%
inhibition at 0.1 µM (PRKD1): -11%
inhibition at 0.1 µM (LCK): 48%
inhibition at 0.1 µM (VRK1): -4%
inhibition at 0.1 µM (FRK): 35%
inhibition at 0.1 µM (NTRK2): 28%
inhibition at 0.1 µM (ACVRL1): 88%
inhibition at 0.1 µM (EPHA2): 7%
inhibition at 0.1 µM (SIK2): 94%
inhibition at 0.1 µM (IGF1R): 3%
inhibition at 0.1 µM (EGFR_L747-E749del_A750P): 2%
inhibition at 0.1 µM (RET): 27%
inhibition at 0.1 µM (NTRK3): 17%
inhibition at 0.1 µM (CDK5_p35): 9%
inhibition at 0.1 µM (WNK2): 1%
inhibition at 0.1 µM (EPHA5): 10%
Inhibition of BMP-6-stimulated BRE-LUC reporter activity [1]: in the submicromolar range
inhibition at 0.1 µM (IRAK4): 13%
inhibition at 0.1 µM (ERBB2): 0%
inhibition at 0.1 µM (DAPK3): 16%
inhibition at 0.1 µM (SRC): 15%
inhibition at 0.1 µM (ALK_R1275Q): 6%
inhibition at 0.1 µM (MST1R): -3%
inhibition at 0.1 µM (ACVR1B): 22%
inhibition at 0.1 µM (TSSK1B): 9%
inhibition at 0.1 µM (PHKG1): 8%
inhibition at 0.1 µM (PRKCQ): 12%
inhibition at 0.1 µM (MAPK8): -6%
inhibition at 0.1 µM (EGFR_G719S): 10%
inhibition at 0.1 µM (KIT_D816V): 36%
inhibition at 0.1 µM (IKBKE): 6%
inhibition at 0.1 µM (DAPK1): 12%
inhibition at 0.1 µM (ABL1): 3%

Cc1cc2cc(c1)-c1cnn3ccc(nc13)NCCNC(=O)CCN(C)C2 [OD52]
inhibition at 0.1 µM (CSK): -6%
inhibition at 0.1 µM (MAP3K7): -6%
inhibition at 0.1 µM (EIF2AK3): -14%
inhibition at 0.1 µM (CDK1_cyclinE1): -2%
inhibition at 0.1 µM (TBK1): -1%
inhibition at 0.1 µM (KIT_T670I): -23%
inhibition at 0.1 µM (IKBKB): -3%
inhibition at 0.1 µM (MAP3K1): -14%
inhibition at 0.1 µM (CDK3_cyclinE): 5%
inhibition at 0.1 µM (PRKD1): -22%
inhibition at 0.1 µM (LCK): 4%
inhibition at 0.1 µM (VRK1): -15%
inhibition at 0.1 µM (FRK): -5%
inhibition at 0.1 µM (NTRK2): 28%
inhibition at 0.1 µM (ACVRL1): 89%
inhibition at 0.1 µM (EPHA2): -6%
inhibition at 0.1 µM (SIK2): -1%
inhibition at 0.1 µM (IGF1R): -25%
inhibition at 0.1 µM (EGFR_L747-E749del_A750P): -9%
inhibition at 0.1 µM (RET): 28%
inhibition at 0.1 µM (NTRK3): 24%
inhibition at 0.1 µM (CDK5_p35): -8%
inhibition at 0.1 µM (WNK2): 17%
inhibition at 0.1 µM (EPHA5): -1%
Inhibition of BMP-6-stimulated BRE-LUC reporter activity [1]: in the submicromolar range
inhibition at 0.1 µM (IRAK4): -2%
inhibition at 0.1 µM (ERBB2): -44%
inhibition at 0.1 µM (DAPK3): 11%
inhibition at 0.1 µM (SRC): -6%
inhibition at 0.1 µM (ALK_R1275Q): -1%
inhibition at 0.1 µM (MST1R): -24%
inhibition at 0.1 µM (ACVR1B): 13%
inhibition at 0.1 µM (TSSK1B): -5%
inhibition at 0.1 µM (PHKG1): -4%
inhibition at 0.1 µM (PRKCQ): -2%
inhibition at 0.1 µM (MAPK8): -9%
inhibition at 0.1 µM (EGFR_G719S): -9%
inhibition at 0.1 µM (KIT_D816V): -5%
inhibition at 0.1 µM (IKBKE): -21%
inhibition at 0.1 µM (DAPK1): 0%
inhibition at 0.1 µM (ABL1): 0%

Source: publication PMC6874179, “Development of Macrocycle Kinase Inhibitors for ALK2 Using Fibrodysplasia Ossificans Progressiva‐Derived Endothelial Cells” (JBMR Plus, 2019)
